Assay: Safety and tolerability: adverse events, dose-limiting toxicities, MTD, RP2D (Phase 1A/1B)
Assay type: in vivo
Description: This was an open-label, Phase 1, dose-escalation/dose-expansion study, conducted across six study centres in Australia. The dose-escalation phase evaluated twice-daily (BID) and once-daily (QD) dosing, and the dose-expansion phase evaluated the BID RP2D from the dose-escalation phase and food effects (Fig. 1). The food-effects cohort comprised two sequences: fast followed by fed (sequence 1) and fed followed by fast (sequence 2). […] The decision to proceed to the next dose cohort was determined by the Safety Monitoring Committee and followed a modified 3 + 3 escalation scheme. […] When ≥2 DLTs occurred in the first 23 days of a dose level, the next lower dose level was declared the MTD. Safety was monitored and DLTs were assessed in all dose cohorts. […] The food-effects cohort investigated the effects of food on the PK of pamiparib in patients with advanced solid tumours.
The QD dosing regimen was added as an amendment to the protocol with the purpose of exploring the feasibility of a more convenient regimen.
Safety and tolerability were assessed throughout the study by monitoring adverse events (AEs), serious AEs, clinical laboratory measurements and physical examinations. Adverse events were categorised according to their severity (National Cancer Institute Common Terminology Criteria for Adverse Events v4.03) and relationship to the study treatment.

[1] = 101 total patients, dose escalation and expansion
[2] = BID dose-escalation (2.5–120 mg), 45 patients
[3] = BID dose-escalation, 45 patients
[4] = Dose Escalation and Dose Expansion (N=101)
[5] = Total BID dose escalation (N = 45)
[6] = Total QD dose escalation (N=19)

For `C[C@]12CCCN1CC1=NNC(=O)c3cc(F)cc4[nH]c2c1c34` [pamiparib], the “Serious AE: nausea” value (101 patients) was 4.0%, the “Serious AE: pleural effusion” value (101 patients) was 3.0% and the “Serious AE: pneumonia” value (101 patients) was 3.0%. The “Serious AE: small intestinal obstruction” value (101 patients) was 5.0%, the “Serious AEs” value (101 patients (44 patients)) was 43.6% and the “Anaemia leading to dose reduction/interruption” value (101 total patients) was 21.8%. The “Haematologic AEs leading to dose reduction/interruption” value (101 total patients) was 23.8%, the “Neutropenia leading to dose reduction/interruption” value (101 total patients) was 5.9% and the “Thrombocytopenia leading to dose reduction/interruption” value (101 total patients) was 4.0%. The “Adverse events leading to treatment discontinuation” value (101 total patients (six patients)) was 5.9%, the “Anaemia, Grades ≥3” value [1] was 24.8% and the “Anaemia, all Grades” value [1] was 35.6%. For the same molecule, the “Diarrhoea, Grades ≥3” value [1] was 2.0%, the “Diarrhoea, all Grades” value [1] was 32.7% and the “Fatigue, Grades ≥3” value [1] was 3.0%. The “Fatigue, all Grades” value [1] was 48.5%, the “Increased alanine aminotransferase, Grades ≥3” value [1] was 5.0% and the “Increased alanine aminotransferase, all Grades” value [1] was 11.9%. For the same molecule, the “Nausea, Grades ≥3” value [1] was 4.0%, the “Nausea, all Grades” value [1] was 69.3% and the “Neutropenia, Grades ≥3” value [1] was 5.9%. For the same molecule, the “Neutropenia, all Grades” value [1] was 9.9%, the “Vomiting, Grades ≥3” value [1] was 1.0% and the “Vomiting, all Grades” value [1] was 31.7%. For the same molecule, the “Treatment-related grade ≥3 AEs” value (120-mg BID dosage cohort) was 60.0%, the “Treatment-related grade ≥3 AEs” value (160-mg QD dosage cohort) was 63.6% and the “Patients with a grade ≥3 AE” value (BID dosage cohort, dose escalation (N=45)) was 62.2%. The “Anaemia, AE” value [2] was 33.3%, the “Diarrhoea, AE” value [2] was 28.9% and the “Fatigue, AE” value [2] was 33.3%. For the same molecule, the “Nausea, AE” value [2] was 64.4%, the “Vomiting, AE” value [2] was 35.6% and the “Treatment-related AEs leading to dose interruptions” value [3] was 31.1%. The “Treatment-related AEs leading to dose reductions” value [3] was 6.7%, the “Maximum tolerated dose (MTD)” value (BID dosing) was 80 mg and the “Recommended Phase 2 dose (RP2D)” value (BID dosing) was 60 mg. The “Abdominal pain, All Grades” value [4] was 17 (16.8) n (%), the “Abdominal pain, Grade ≥3” value [4] was 1 (1.0) n (%) and the “Anemia, All Grades” value [4] was 36 (35.6) n (%). For the same molecule, the “Anemia, Grade ≥3” value [4] was 25 (24.8) n (%), the “Constipation, All Grades” value [4] was 21 (20.8) n (%) and the “Constipation, Grade ≥3” value [4] was 0 n (%). For the same molecule, the “Decreased appetite, All Grades” value [4] was 23 (22.8) n (%), the “Decreased appetite, Grade ≥3” value [4] was 0 n (%) and the “Diarrhea, All Grades” value [4] was 33 (32.7) n (%). The “Diarrhea, Grade ≥3” value [4] was 2 (2.0) n (%), the “Fatigue, All Grades” value [4] was 49 (48.5) n (%) and the “Fatigue, Grade ≥3” value [4] was 3 (3.0) n (%). The “Headache, All Grades” value [4] was 12 (11.9) n (%), the “Headache, Grade ≥3” value [4] was 0 n (%) and the “Increased alanine aminotransferase, All Grades” value [4] was 12 (11.9) n (%). For the same molecule, the “Increased alanine aminotransferase, Grade ≥3” value [4] was 5 (5.0) n (%), the “Increased aspartate aminotransferase, All Grades” value [4] was 10 (9.9) n (%) and the “Increased aspartate aminotransferase, Grade ≥3” value [4] was 3 (3.0) n (%). The “Nausea, All Grades” value [4] was 70 (69.3) n (%), the “Nausea, Grade ≥3” value [4] was 4 (4.0) n (%) and the “Neutropenia, All Grades” value [4] was 10 (9.9) n (%). For the same molecule, the “Neutropenia, Grade ≥3” value [4] was 6 (5.9) n (%), the “Upper respiratory tract infection, All Grades” value [4] was 12 (11.9) n (%) and the “Upper respiratory tract infection, Grade ≥3” value [4] was 0 n (%). The “Urinary tract infection, All Grades” value [4] was 14 (13.9) n (%), the “Urinary tract infection, Grade ≥3” value [4] was 1 (1.0) n (%) and the “Vomiting, All Grades” value [4] was 32 (31.7) n (%). For the same molecule, the “Vomiting, Grade ≥3” value [4] was 1 (1.0) n (%), the “Patients with a grade ≥3 AE” value (QD dosage cohort, dose escalation (N=19)) was 73.7% and the “Treatment-related AEs leading to dose interruptions” value (QD dosage group (N=19)) was 57.9%. The “Treatment-related AEs leading to dose reductions” value (QD dosage group (N=19)) was 5.3%, the “Diarrhea, AE” value (QD dosage group overall (N=19)) was 47.4% and the “Fatigue, AE” value (QD dosage group overall (N=19)) was 68.4%. For the same molecule, the “Nausea, AE” value (QD dosage group overall (N=19)) was 73.7%, the “Maximum tolerated dose (MTD)” value (QD dosing) was 160 mg and the “Recommended Phase 2 dose (RP2D)” value (QD dosing) was 120 mg. For the same molecule, the “Abdominal pain, AE of any grade” value [5] was 9 (20.0) n (%), the “Anaemia, AE of any grade” value [5] was 15 (33.3) n (%) and the “Ascites, AE of any grade” value [5] was 5 (11.1) n (%). The “Back pain, AE of any grade” value [5] was 4 (8.9) n (%), the “Constipation, AE of any grade” value [5] was 8 (17.8) n (%) and the “Cough, AE of any grade” value [5] was 4 (8.9) n (%). The “Decreased appetite, AE of any grade” value [5] was 5 (11.1) n (%), the “Diarrhoea, AE of any grade” value [5] was 13 (28.9) n (%) and the Dose-limiting toxicity [5] was 4 (8.9) n (%). For the same molecule, the “Dyspnoea, AE of any grade” value [5] was 3 (6.7) n (%), the “Fatigue, AE of any grade” value [5] was 15 (33.3) n (%) and the “Headache, AE of any grade” value [5] was 4 (8.9) n (%). For the same molecule, the “Hypoalbuminemia, AE of any grade” value [5] was 3 (6.7) n (%), the “Hypomagnesemia, AE of any grade” value [5] was 4 (8.9) n (%) and the “Hypophosphatemia, AE of any grade” value [5] was 3 (6.7) n (%). For the same molecule, the “Increased AST, AE of any grade” value [5] was 3 (6.7) n (%), the “Muscle spasms, AE of any grade” value [5] was 4 (8.9) n (%) and the “Nausea, AE of any grade” value [5] was 29 (64.4) n (%). For the same molecule, the “Neutropenia, AE of any grade” value [5] was 6 (13.3) n (%), the “Non-cardiac chest pain, AE of any grade” value [5] was 3 (6.7) n (%) and the “Pain in extremity, AE of any grade” value [5] was 3 (6.7) n (%). For the same molecule, the “Peripheral sensory neuropathy, AE of any grade” value [5] was 3 (6.7) n (%), the “Pleural effusion, AE of any grade” value [5] was 4 (8.9) n (%) and the “Pyrexia, AE of any grade” value [5] was 4 (8.9) n (%). For the same molecule, the “Treatment-emergent AE” value [5] was 45 (100.0) n (%), the “Treatment-emergent AE: Grade 3 or higher” value [5] was 28 (62.2) n (%) and the “Treatment-emergent AE: Leading to death” value [5] was 4 (8.9) n (%). For the same molecule, the “Treatment-emergent AE: Leading to dose interruption” value [5] was 27 (60.0) n (%), the “Treatment-emergent AE: Leading to dose modification” value [5] was 27 (60.0) n (%) and the “Treatment-emergent AE: Leading to dose reduction” value [5] was 3 (6.7) n (%). The “Treatment-emergent AE: Leading to treatment discontinuation” value [5] was 3 (6.7) n (%), the “Treatment-emergent AE: Serious” value [5] was 25 (55.6) n (%) and the “Treatment-related AE” value [5] was 35 (77.8) n (%). For the same molecule, the “Treatment-related AE: Grade 3 or higher” value [5] was 10 (22.2) n (%), the “Treatment-related AE: Leading to death” value [5] was 0 (0.0) n (%) and the “Treatment-related AE: Leading to dose interruption” value [5] was 14 (31.1) n (%). The “Treatment-related AE: Leading to dose modification” value [5] was 14 (31.1) n (%), the “Treatment-related AE: Leading to dose reduction” value [5] was 3 (6.7) n (%) and the “Treatment-related AE: Leading to treatment discontinuation” value [5] was 2 (4.4) n (%). The “Treatment-related AE: Serious” value [5] was 3 (6.7) n (%), the “Upper respiratory tract infection, AE of any grade” value [5] was 8 (17.8) n (%) and the “Urinary tract infection, AE of any grade” value [5] was 8 (17.8) n (%). For the same molecule, the “Vomiting, AE of any grade” value [5] was 16 (35.6) n (%), the Dose-limiting toxicity [6] was 1 (5.3) n (%) and the “Treatment-emergent AE” value [6] was 19 (100.0) n (%). For the same molecule, the “Treatment-emergent AE: Grade 3 or higher” value [6] was 14 (73.7) n (%), the “Treatment-emergent AE: Leading to death” value [6] was 0 (0.0) n (%) and the “Treatment-emergent AE: Leading to dose interruption” value [6] was 13 (68.4) n (%). The “Treatment-emergent AE: Leading to dose modification” value [6] was 13 (68.4) n (%), the “Treatment-emergent AE: Leading to dose reduction” value [6] was 1 (5.3) n (%) and the “Treatment-emergent AE: Leading to treatment discontinuation” value [6] was 2 (10.5) n (%). For the same molecule, the “Treatment-emergent AE: Serious” value [6] was 6 (31.6) n (%), the “Treatment-related AE” value [6] was 17 (89.5) n (%) and the “Treatment-related AE: Grade 3 or higher” value [6] was 10 (52.6) n (%). The “Treatment-related AE: Leading to death” value [6] was 0 (0.0) n (%), the “Treatment-related AE: Leading to dose interruption” value [6] was 11 (57.9) n (%) and the “Treatment-related AE: Leading to dose modification” value [6] was 11 (57.9) n (%). The “Treatment-related AE: Leading to dose reduction” value [6] was 1 (5.3) n (%), the “Treatment-related AE: Leading to treatment discontinuation” value [6] was 2 (10.5) n (%) and the “Treatment-related AE: Serious” value [6] was 1 (5.3) n (%).

From PMC8854719, “Phase 1A/1B dose-escalation and -expansion study to evaluate the safety, pharmacokinetics, food effects and antitumor activity of pamiparib in advanced solid tumours” (British Journal of Cancer, 2021)
